From PubChem BioAssay AID1259407 (Chemical Carcinogenesis Research Information System (CCRIS), 2018)
Entries after “also recorded” stand apart in the source; their conditions may differ. Activity calls are given as the source filed them. No rule for the calls is given here.

Test system: CCRIS mutagenicity, Ames/micronucleus/aberration tests
Experiment: CCRIS mutagenicity studies

For `CC(=O)Nc1ccc2c(c1)Cc1ccccc1-2`, the mutagenic call (End Point: IN VITRO MICRONUCLEUS, Test System: AHH-1 CELLS, Metabolic Activation: NONE) was “active; positive”, the mutagenic call (End Point: IN VITRO MICRONUCLEUS, Test System: MCL-5 CELLS, Metabolic Activation: NONE) was “active; positive” and the mutagenic call (End Point: IN VITRO MICRONUCLEUS, Test System: V79 CELLS, Metabolic Activation: RAT, LIVER, S-9, AROCLOR 1254) was “active; positive”. The mutagenic call (End Point: In vivo micronucleus, Test System: Micronucleated hepatocytes, Species: Rat, Strain/Sex: F344/Male, Route: Oral) was “active; positive (p<0.01 at highest dose); also recorded: active; positive (p<0.05 at lower dose and p<0.01 at higher dose)”, the mutagenic call (Test System: AMES SALMONELLA TYPHIMURIUM, Strain/Indicator: DJ400, Metabolic Activation: HUMAN, HEPATOMA CELLS, BENZO[A]ANTHRACENE, Method: PREINCUBATION) was “active; positive” and the mutagenic call (Test System: AMES SALMONELLA TYPHIMURIUM, Strain/Indicator: DJ400, Metabolic Activation: HUMAN, HEPATOMA CELLS, Method: PREINCUBATION) was “active; positive”. For the same molecule, the mutagenic call (Test System: AMES SALMONELLA TYPHIMURIUM, Strain/Indicator: DJ400, Metabolic Activation: RAT, LIVER, S-9, AROCLOR 1254, Method: PREINCUBATION) was “active; positive”, the mutagenic call (Test System: AMES SALMONELLA TYPHIMURIUM, Strain/Indicator: DJ400, Metabolic Activation: RAT, LIVER, S-9, Method: PREINCUBATION) was “active; positive” and the mutagenic call (Test System: AMES SALMONELLA TYPHIMURIUM, Strain/Indicator: DJ460, Metabolic Activation: HUMAN, HEPATOMA CELLS, BENZO[A]ANTHRACENE, Method: PREINCUBATION) was “active; positive”. For the same molecule, the mutagenic call (Test System: AMES SALMONELLA TYPHIMURIUM, Strain/Indicator: DJ460, Metabolic Activation: HUMAN, HEPATOMA CELLS, Method: PREINCUBATION) was “active; positive”, the mutagenic call (Test System: AMES SALMONELLA TYPHIMURIUM, Strain/Indicator: DJ460, Metabolic Activation: RAT, LIVER, S-9, AROCLOR 1254, Method: PREINCUBATION) was “active; positive” and the mutagenic call (Test System: AMES SALMONELLA TYPHIMURIUM, Strain/Indicator: DJ460, Metabolic Activation: RAT, LIVER, S-9, Method: PREINCUBATION) was “active; positive”. For the same molecule, the mutagenic call (Test System: AMES SALMONELLA TYPHIMURIUM, Strain/Indicator: TA97, Metabolic Activation: NONE, Method: STANDARD PLATE) was “inactive; negative”, the mutagenic call (Test System: AMES SALMONELLA TYPHIMURIUM, Strain/Indicator: TA97, Metabolic Activation: RAT, LIVER, S-9, AROCLOR 1254, Method: STANDARD PLATE) was “inactive; negative” and the mutagenic call (Test System: AMES SALMONELLA TYPHIMURIUM, Strain/Indicator: TA98, Metabolic Activation: GUINEA PIG, LIVER, HEPATOCYTES) was “active; positive”. For the same molecule, the mutagenic call (Test System: AMES SALMONELLA TYPHIMURIUM, Strain/Indicator: TA98, Metabolic Activation: GUINEA PIG, LIVER, S-9, Method: STANDARD PLATE) was “active; positive”, the mutagenic call (Test System: AMES SALMONELLA TYPHIMURIUM, Strain/Indicator: TA98, Metabolic Activation: HAMSTER, LIVER, HEPATOCYTES) was “active; positive” and the mutagenic call (Test System: AMES SALMONELLA TYPHIMURIUM, Strain/Indicator: TA98, Metabolic Activation: HAMSTER, LIVER, S-9, Method: STANDARD PLATE) was “active; positive”. The mutagenic call (Test System: AMES SALMONELLA TYPHIMURIUM, Strain/Indicator: TA98, Metabolic Activation: HUMAN, FETAL LIVER, S-9) was “inactive; negative”, the mutagenic call (Test System: AMES SALMONELLA TYPHIMURIUM, Strain/Indicator: TA98, Metabolic Activation: HUMAN, HEPATOMA CELLS, BENZO[A]ANTHRACENE, Method: PREINCUBATION) was “active; positive” and the mutagenic call (Test System: AMES SALMONELLA TYPHIMURIUM, Strain/Indicator: TA98, Metabolic Activation: HUMAN, HEPATOMA CELLS, Method: PREINCUBATION) was “active; positive”. For the same molecule, the mutagenic call (Test System: AMES SALMONELLA TYPHIMURIUM, Strain/Indicator: TA98, Metabolic Activation: HUMAN, RED BLOOD CELL, CYTOSOL, Method: PREINCUBATION) was “active; positive”, the mutagenic call (Test System: AMES SALMONELLA TYPHIMURIUM, Strain/Indicator: TA98, Metabolic Activation: MOUSE, LIVER, HEPATOCYTES) was “inactive; negative” and the mutagenic call (Test System: AMES SALMONELLA TYPHIMURIUM, Strain/Indicator: TA98, Metabolic Activation: MOUSE, LIVER, S-9, Method: STANDARD PLATE) was “active; positive”. For the same molecule, the mutagenic call (Test System: AMES SALMONELLA TYPHIMURIUM, Strain/Indicator: TA98, Metabolic Activation: NONE, Method: SPIRAL ASSAY) was “inactive; negative”, the mutagenic call (Test System: AMES SALMONELLA TYPHIMURIUM, Strain/Indicator: TA98, Metabolic Activation: NONE, Method: STANDARD PLATE) was “inactive; negative” and the mutagenic call (Test System: AMES SALMONELLA TYPHIMURIUM, Strain/Indicator: TA98, Metabolic Activation: RABBIT, LIVER, MICROSOMAL FRACTION, Method: STANDARD PLATE) was “active; positive”. The mutagenic call (Test System: AMES SALMONELLA TYPHIMURIUM, Strain/Indicator: TA98, Metabolic Activation: RABBIT, LUNG, MICROSOMAL FRACTION, Method: STANDARD PLATE) was “active; positive”, the mutagenic call (Test System: AMES SALMONELLA TYPHIMURIUM, Strain/Indicator: TA98, Metabolic Activation: RAT, BLADDER, S-9, PCB, Method: FLUCTUATION TEST) was “inactive; negative” and the mutagenic call (Test System: AMES SALMONELLA TYPHIMURIUM, Strain/Indicator: TA98, Metabolic Activation: RAT, LIVER, HEPATOCYTES) was “inactive; negative”. For the same molecule, the mutagenic call (Test System: AMES SALMONELLA TYPHIMURIUM, Strain/Indicator: TA98, Metabolic Activation: RAT, LIVER, S-9, ACRYLAMIDE, Method: STANDARD PLATE) was “active; positive”, the mutagenic call (Test System: AMES SALMONELLA TYPHIMURIUM, Strain/Indicator: TA98, Metabolic Activation: RAT, LIVER, S-9, AROCLOR 1254, Method: PREINCUBATION) was “active; positive” and the mutagenic call (Test System: AMES SALMONELLA TYPHIMURIUM, Strain/Indicator: TA98, Metabolic Activation: RAT, LIVER, S-9, AROCLOR 1254, Method: SPIRAL ASSAY) was “active; positive”. The mutagenic call (Test System: AMES SALMONELLA TYPHIMURIUM, Strain/Indicator: TA98, Metabolic Activation: RAT, LIVER, S-9, PHENOBARBITAL, Method: STANDARD PLATE) was “active; positive”, the mutagenic call (Test System: AMES SALMONELLA TYPHIMURIUM, Strain/Indicator: TA98, Metabolic Activation: RAT, LIVER, S-9, Method: PREINCUBATION) was “active; positive” and the mutagenic call (Test System: AMES SALMONELLA TYPHIMURIUM, Strain/Indicator: TA98, Metabolic Activation: RAT, LIVER, S-9, Method: STANDARD PLATE) was “active; positive”. The mutagenic call (Test System: AMES SALMONELLA TYPHIMURIUM, Strain/Indicator: TA100, Metabolic Activation: NONE, Method: SPIRAL ASSAY) was “inactive; negative”, the mutagenic call (Test System: AMES SALMONELLA TYPHIMURIUM, Strain/Indicator: TA100, Metabolic Activation: NONE, Method: STANDARD PLATE) was “inactive; negative” and the mutagenic call (Test System: AMES SALMONELLA TYPHIMURIUM, Strain/Indicator: TA100, Metabolic Activation: RAT, BLADDER, S-9, PCB, Method: FLUCTUATION TEST) was “inactive; negative”. For the same molecule, the mutagenic call (Test System: AMES SALMONELLA TYPHIMURIUM, Strain/Indicator: TA100, Metabolic Activation: RAT, LIVER, S-9, ACRYLAMIDE, Method: STANDARD PLATE) was “active; positive”, the mutagenic call (Test System: AMES SALMONELLA TYPHIMURIUM, Strain/Indicator: TA100, Metabolic Activation: RAT, LIVER, S-9, AROCLOR 1254, Method: SPIRAL ASSAY) was “inactive; negative” and the mutagenic call (Test System: AMES SALMONELLA TYPHIMURIUM, Strain/Indicator: TA100, Metabolic Activation: RAT, LIVER, S-9, KC500 OR PHENOBARBITAL, Method: LIQUID SUSPENSION) was “active; positive”. The mutagenic call (Test System: AMES SALMONELLA TYPHIMURIUM, Strain/Indicator: TA100, Metabolic Activation: RAT, LIVER, S-9, PHENOBARBITAL, Method: STANDARD PLATE) was “active; positive”, the mutagenic call (Test System: AMES SALMONELLA TYPHIMURIUM, Strain/Indicator: TA1535, Metabolic Activation: NONE, Method: SPIRAL ASSAY) was “inactive; negative” and the mutagenic call (Test System: AMES SALMONELLA TYPHIMURIUM, Strain/Indicator: TA1535, Metabolic Activation: NONE, Method: STANDARD PLATE) was “inactive; negative”. For the same molecule, the mutagenic call (Test System: AMES SALMONELLA TYPHIMURIUM, Strain/Indicator: TA1535, Metabolic Activation: RAT, LIVER, S-9, AROCLOR 1254, Method: SPIRAL ASSAY) was “inactive; negative”, the mutagenic call (Test System: AMES SALMONELLA TYPHIMURIUM, Strain/Indicator: TA1535, Metabolic Activation: RAT, LIVER, S-9, AROCLOR 1254, Method: STANDARD PLATE) was “inactive; negative” and the mutagenic call (Test System: AMES SALMONELLA TYPHIMURIUM, Strain/Indicator: TA1537, Metabolic Activation: NONE, Method: SPIRAL ASSAY) was “inactive; negative”.
